System: H4
Assay: Toxicity in human H4 cells at 10 uM
Format: cell-based
Conditions: h4, 10 µM

For `COc1cc(OC)c(C=C2C(O)=Nc3ccccc32)c(OC)c1` [IC261], which Activity is on record?
The Activity was 40 µM.
